# Results reported in paper PMC6934184, “Selective DNA-PKcs inhibition extends the therapeutic index of localized radiotherapy and chemotherapy” (The Journal of Clinical Investigation, 2019).
# Target: T1, TNK2 (ACK) (Homo sapiens, UniProt Q07912)
# T1 construct: purchased Thermo Fisher Scientific (Life Technologies) SelectScreen
# Assay: SelectScreen LanthaScreen
# Type: binding
# Details: read-out: % displacement
# Procedure, shortened: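 NU5455 was profiled across the SelectScreen Broad panel of kinase activity and binding assays. Z'LYTE reactions such as CSF1R ran at apparent Km ATP, while the Adapta CAMK1 assay used ATP listed as 10. Values are given as percent.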
# T1 sequence (Q07912 whole entry): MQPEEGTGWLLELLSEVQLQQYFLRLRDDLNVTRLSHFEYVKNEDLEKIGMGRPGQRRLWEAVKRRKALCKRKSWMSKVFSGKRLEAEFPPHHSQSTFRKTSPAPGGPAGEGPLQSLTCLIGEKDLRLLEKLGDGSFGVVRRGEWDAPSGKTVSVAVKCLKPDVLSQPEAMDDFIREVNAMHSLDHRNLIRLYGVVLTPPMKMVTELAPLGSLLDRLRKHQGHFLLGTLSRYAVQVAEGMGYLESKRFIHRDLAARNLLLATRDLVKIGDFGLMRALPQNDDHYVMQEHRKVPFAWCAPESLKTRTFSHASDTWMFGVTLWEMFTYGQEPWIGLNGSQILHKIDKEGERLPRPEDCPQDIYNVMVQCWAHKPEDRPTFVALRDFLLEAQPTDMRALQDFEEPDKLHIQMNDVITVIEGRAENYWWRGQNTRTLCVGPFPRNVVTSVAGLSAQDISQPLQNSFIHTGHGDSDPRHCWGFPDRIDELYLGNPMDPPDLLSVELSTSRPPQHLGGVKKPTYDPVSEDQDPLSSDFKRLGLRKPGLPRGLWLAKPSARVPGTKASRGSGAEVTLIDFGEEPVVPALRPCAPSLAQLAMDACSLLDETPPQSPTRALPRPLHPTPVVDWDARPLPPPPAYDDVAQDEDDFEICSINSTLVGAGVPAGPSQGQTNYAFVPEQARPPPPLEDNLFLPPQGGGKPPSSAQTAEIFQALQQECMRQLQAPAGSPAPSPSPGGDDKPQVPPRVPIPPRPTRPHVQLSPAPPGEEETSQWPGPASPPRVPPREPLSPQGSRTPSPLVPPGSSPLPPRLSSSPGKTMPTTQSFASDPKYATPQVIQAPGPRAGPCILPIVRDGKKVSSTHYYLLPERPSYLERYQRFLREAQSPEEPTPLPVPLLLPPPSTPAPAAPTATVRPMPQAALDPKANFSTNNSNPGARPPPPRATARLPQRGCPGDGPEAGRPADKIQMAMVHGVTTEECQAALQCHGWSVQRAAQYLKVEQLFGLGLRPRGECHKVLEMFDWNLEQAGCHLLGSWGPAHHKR
structure (smiles),measurement,value
CN(C(=O)CN1CCOCC1)c1ccc2sc3c(-c4cccc5c(=O)cc(N6CC7CCC(C6)O7)oc45)cccc3c2c1 [NU5455],inhibition at 1 µM,1.8%
